ChEMBL document CHEMBL6182924, “Discovery of a Novel and Potent MET Transcription Inhibitor Targeting Promoter G-Quadruplex for the Treatment of NSCLC” (J Med Chem, 2025)
Calls of active or inactive are those of the source. No cut-off for these calls is given here.

Legend:
A549 [1] = assay: Induction of apoptosis in human A549 cells assessed as necrotic cells at 2 uM incubated for 24 hrs by Annexin V-FITC/PI staining based flow cytometry analysis (reference value: 4.37 %); format: functional
A549 [2] = assay: Inhibition of colony formation in human A549 cells incubated for 2 weeks by crystal violet staining based analysis; format: functional, cell-based; details: dose 0.5-2 µM
A549 [3] = assay: Antitumor activity against human A549 cells xenografted in BALB/c mouse assessed as downregulation of AKT expression in tumor at 20 mg/kg, po administered once a day and measured for 20 days by Western blot analysis; format: functional, organism-based; details: time 20.0 day
NCI-H1975 [4] = assay: Antiproliferative activity against MET knockdown human NCI-H1975 cells assessed as inhibition of cell growth by CCK-8 assay; format: functional, cell-based
A549 [5] = assay: Antitumor activity against human A549 cells xenografted in BALB/c mouse assessed as downregulation of c-MET expression in tumor at 20 mg/kg, po administered once a day and measured for 20 days by Western blot analysis; format: functional, organism-based; details: time 20.0 day
NCI-H1975 [6] = assay: Antiproliferative activity against human NCI-H1975 cells assessed as inhibition of cell growth incubated for 3 days by CCK-8 assay; format: functional, cell-based; details: time 3.0 day
A549 [7] = assay: Antitumor activity against human A549 cells xenografted in BALB/c mouse assessed as tumor growth inhibition at 20 mg/kg, po administered once a day and measured up to 24 days; format: functional; details: A549, 576 h, time <= 24 day, read-out: TGI
[8] = Toxicity in BALB/c mouse xenografted with human A549 cells assessed as heart damage at 40 mg/kg, po administered once a day and measured after 20 days by H and E staining based analysis; format: organism-based; details: in vivo, 480 h, time 20 day
[9] = Toxicity in BALB/c mouse xenografted with human A549 cells assessed as body weight loss at 40 mg/kg, po administered once a day and measured after 20 days; format: organism-based; details: in vivo, 480 h, time 20 day
[10] = Acute toxicity in Sprague-Dawley rat assessed as liver damage at 500 to 2000 mg/kg, po measured every 2 days by H and E staining based analysis; format: organism-based; details: in vivo, 48 h, dose 500-2000 mg/kg, time 2 day
BaF3 [11] = assay: Antiproliferative activity against mouse BaF3 cells harboring TPR-MET […] mutant incubated for 24 hrs by CCK-8 assay; format: functional, cell-based; details: BaF3, 24 h
A549 [12] = assay: Induction of apoptosis in human A549 cells assessed as early apoptotic cells at 2 uM incubated for 24 hrs by Annexin V-FITC/PI staining based flow cytometry analysis (reference value: 1.73 %); format: functional
BaF3 [13] = assay: Antiproliferative activity against mouse BaF3 cells harboring TPR-MET D1228N mutant incubated for 24 hrs by CCK-8 assay; format: functional, cell-based; details: BaF3, 24 h
A549 [14] = assay: Induction of cell cycle arrest in human A549 cells assessed as accumulation of cells at G2 phase at 2 uM measured for 24 hrs by PI/Rnase staining based flow cytometry (reference value: 13.4 %); format: functional
NCI-H1975 [15] = assay: Induction of cell cycle arrest in human NCI-H1975 cells assessed as accumulation of cells at G2 phase at 0.5 uM measured for 24 hrs by PI/Rnase staining based flow cytometry (reference value: 14.8 %); format: functional
Quadruplex DNA = assay: Binding affinity to c-MET G4-quadruplex DNA (unknown origin) assessed as dissociation constant by MST assay; format: nucleic-acid assay
NCI-H1975 [16] = assay: Induction of cell cycle arrest in human NCI-H1975 cells assessed as accumulation of cells at G1 phase at 0.5 uM measured for 24 hrs by PI/Rnase staining based flow cytometry (reference value: 79.2 %); format: functional
[17] = Toxicity in BALB/c mouse xenografted with human A549 cells assessed as liver damage at 40 mg/kg, po administered once a day and measured after 20 days by H and E staining based analysis; format: organism-based; details: in vivo, 480 h, time 20 day
BaF3 [18] = assay: Antiproliferative activity against mouse BaF3 cells harboring TPR-MET L1195V mutant incubated for 24 hrs by CCK-8 assay; format: functional, cell-based; details: BaF3, 24 h
A549 [19] = assay: Induction of cell cycle arrest in human A549 cells assessed as accumulation of cells at G2 phase at 0.5 uM measured for 24 hrs by PI/Rnase staining based flow cytometry (reference value: 13.4 %); format: functional
NCI-H1975 [20] = assay: Induction of apoptosis in human NCI-H1975 cells assessed as necrotic cells at 0.5 uM incubated for 24 hrs by Annexin V-FITC/PI staining based flow cytometry analysis (reference value: 7.33 %); format: functional
A549 [21] = assay: Downregulation of c-Met expression in human A549 cells at 1 uM by Western blot analysis; format: functional, cell-based; details: time <= 72.0 hrs
NCI-H1975 [22] = assay: Induction of apoptosis in human NCI-H1975 cells assessed as late apoptotic cells at 2 uM incubated for 24 hrs by Annexin V-FITC/PI staining based flow cytometry analysis (reference value: 2.27 %); format: functional
[23] = Toxicity in BALB/c mouse xenografted with human A549 cells assessed as spleen damage at 20 mg/kg, po administered once a day and measured after 40 days by H and E staining based analysis; format: organism-based; details: in vivo, 960 h, time 40 day
A549 [24] = assay: Inhibition of c-MET expression in human A549 cells up to 2000 nM by Western blot analysis; format: functional, cell-based
A549 [25] = assay: Induction of apoptosis in human A549 cells assessed as late apoptotic cells at 0.5 uM incubated for 24 hrs by Annexin V-FITC/PI staining based flow cytometry analysis (reference value: 2.56 %); format: functional
A549 [26] = assay: Antiproliferative activity against human A549 cells incubated for 3 days by CCK-8 assay; format: functional, cell-based; details: A549, 72 h
A549 [27] = assay: Induction of apoptosis in human A549 cells assessed as late apoptotic cells at 1 uM incubated for 24 hrs by Annexin V-FITC/PI staining based flow cytometry analysis (reference value: 2.56 %); format: functional
NCI-H1975 [28] = assay: Induction of apoptosis in human NCI-H1975 cells assessed as early apoptotic cells at 1 uM incubated for 24 hrs by Annexin V-FITC/PI staining based flow cytometry analysis (reference value: 0.35 %); format: functional
[29] = Acute toxicity in Sprague-Dawley rat assessed as heart damage at 500 to 2000 mg/kg, po measured every 2 days by H and E staining based analysis; format: organism-based; details: in vivo, 48 h, dose 500-2000 mg/kg, time 2 day
NCI-H1975 [30] = assay: Induction of apoptosis in human NCI-H1975 cells assessed as late apoptotic cells at 1 uM incubated for 24 hrs by Annexin V-FITC/PI staining based flow cytometry analysis (reference value: 2.27 %); format: functional
A549 [31] = assay: Inhibition of cell migration in human A549 cells incubated for 12 hrs by crystal violet staining based analysis; format: functional; details: dose 0.5-2 µM
[32] = Acute toxicity in Sprague-Dawley rat at 500 to 2000 mg/kg, po measured every 2 days; format: organism-based; details: in vivo, 48 h, dose 500-2000 mg/kg, time 2 day
NCI-H1975 [33] = assay: Induction of cell cycle arrest in human NCI-H1975 cells assessed as accumulation of cells at G2 phase at 2 uM measured for 24 hrs by PI/Rnase staining based flow cytometry (reference value: 14.8 %); format: functional
NCI-H1975 [34] = assay: Inhibition of cell invasion in human NCI-H1975 cells incubated for 12 hrs; format: functional, cell-based; details: dose 0.5-2 µM
[35] = Toxicity in BALB/c mouse xenografted with human A549 cells assessed as spleen damage at 20 mg/kg, po administered once a day and measured after 20 days by H and E staining based analysis; format: organism-based; details: in vivo, 480 h, time 20 day

Question: Which Activity (A549 [1]) does the source give for `COc1cccc(-c2ccc(-c3nc4c5cccnc5c5ncccc5c4[nH]3)o2)c1` here?
Answer: The Activity was 6.99%.

Question: What about the inhibition (A549 [2]) of the same compound?
Answer: The inhibition was “Dose-dependent-effect”.

Question: And the Activity (A549 [3])?
Answer: Its Activity is “Active”.

Question: And the Activity (NCI-H1975 [4])?
Answer: The Activity was “Active”.

Question: And the Activity (A549 [5])?
Answer: Its Activity is “Active”.

Question: What about the Activity (NCI-H1975 [6]) of the same compound?
Answer: The Activity was “Active”.

Question: What about the inhibition in vivo at 20 mg/kg (A549 [7]) of the same compound?
Answer: The inhibition in vivo at 20 mg/kg was 43%.

Question: And the Activity [8]?
Answer: Its Activity is “Non-toxic”.

Question: What about the Activity [9] of the same compound?
Answer: Its Activity is “Non-toxic”.

Question: And the Activity [10]?
Answer: The Activity was “Non-toxic”.

Question: What about the IC50 (BaF3 [11]) of the same compound?
Answer: The IC50 was 620 nM.

Question: And the Activity (A549 [12])?
Answer: The Activity was 12.2%.

Question: And the IC50 (BaF3 [13])?
Answer: Its IC50 is 400 nM.

Question: And the Activity (A549 [14])?
Answer: Its Activity is 9.06%.

Question: And the Activity (NCI-H1975 [15])?
Answer: The Activity was 13%.

Question: What about the Kd (Quadruplex DNA) of the same compound?
Answer: The Kd was 73.5 nM.

Question: What about the Activity (NCI-H1975 [16]) of the same compound?
Answer: The Activity was 80.5%.

Question: And the Activity [17]?
Answer: The Activity was “Non-toxic”.

Question: What about the IC50 (BaF3 [18]) of the same compound?
Answer: Its IC50 is 510 nM.

Question: What about the Activity (A549 [19]) of the same compound?
Answer: The Activity was 14.6%.

Question: What about the Activity (NCI-H1975 [20]) of the same compound?
Answer: Its Activity is 4.81%.

Question: What about the Activity (A549 [21]) of the same compound?
Answer: Its Activity is “Time-dependent-effect”.

Question: What about the Activity (NCI-H1975 [22]) of the same compound?
Answer: Its Activity is 14.2%.

Question: What about the Activity [23] of the same compound?
Answer: Its Activity is “Non-toxic”.

Question: And the inhibition (A549 [24])?
Answer: The inhibition was “Active”.

Question: What about the Activity (A549 [25]) of the same compound?
Answer: Its Activity is 7.9%.

Question: What about the IC50 (A549 [26]) of the same compound?
Answer: Its IC50 is 430 nM.

Question: And the Activity (A549 [27])?
Answer: Its Activity is 10.8%.

Question: And the Activity (NCI-H1975 [28])?
Answer: The Activity was 2.2%.

Question: And the Activity [29]?
Answer: The Activity was “Non-toxic”.

Question: What about the Activity (NCI-H1975 [30]) of the same compound?
Answer: Its Activity is 10.1%.

Question: And the inhibition (A549 [31])?
Answer: The inhibition was “Dose-dependent-effect”.

Question: And the Activity [32]?
Answer: Its Activity is “Non-toxic”.

Question: What about the Activity (NCI-H1975 [33]) of the same compound?
Answer: The Activity was 11%.

Question: What about the inhibition (NCI-H1975 [34]) of the same compound?
Answer: Its inhibition is “Dose-dependent-effect”.

Question: What about the Activity [35] of the same compound?
Answer: The Activity was “Non-toxic”.
